Columns and labels:
[1] = test system: Saccharomyces cerevisiae; assay: Treatment of bacteria and yeast with DOX-loaded grapefruit PMPs (kinetic OD600, relative OD); settings: S. cerevisiae, effective DOX 5-100 μM
Procedure: (§1) Bacteria and yeast strains were maintained as indicated by the supplier: E. coli(ATCC, #25922) was grown on Trypticase Soy Agar/broth at 37° C., Pseudomonas aeruginosa (ATCC) was grown on Tryptic soy Agar/broth with […] rifampicin at 37° C., Pseudomonas syringae pv. tomato str. DC3000 bacteria (ATCC, #BAA-871) was grown on King's Medium B agar with […] rifampicin at 30° C., and Saccharomyces cerevisiae (ATCC, #9763) was grown on yeast extract peptone dextrose broth (YPD) and maintained at 30° C. Prior to treatment, fresh one day cultures were grown overnight, the OD (600 nm) was adjusted to 0.1 OD with medium prior to use, and bacteria/yeast were transferred to a 96 well plate for treatment (duplicate samples, 100 μl/well). […] Plates were covered with aluminum foil, and incubated at 37° C. (E. coli, P. aeruginosa), or 30° C. (S. cerevisiae, P. syringae) and agitated at 220 rpm.
(§2) A kinetic Absorbance measurement at 600 nm was performed on a SpectraMax® spectrophotometer to monitor the OD of the cultures at t=0 h, t=1 h, t=2 h, t=3 h, t=4.5 h, t=16 h (E. coli, P. aeruginosa) or t=0.5 h, t=1.5 h, t=2.5 h, t=3.5 h, t=4 h, t=16 h (P. syringae, S. cerevisiae).
(§3) To compare the cytotoxic effect of PMP-DOX treatment on different bacterial and yeast strains, within each treatment group the relative OD was determined as compared to the untreated control (set to 100%).

[2] = test system: Pseudomonas aeruginosa; assay: as above; settings: P. aeruginosa, effective DOX 5-100 μM
Procedure: as §1, §2, §3

[3] = test system: Pseudomonas syringae pv. tomato str. DC3000; assay: as above; settings: P. syringae, effective DOX 5-100 μM
Procedure: as §1, §2, §3

[4] = test system: E. coli; assay: as above; settings: effective DOX 5-100 μM
Procedure: as §1, §2, §3

[5] = test system: Arabidopsis thaliana seedlings; assay: Treatment of Arabidopsis thaliana seedlings with doxorubicin-loaded PMPs (cytotoxicity: leaf vigor, leaf color, root length); format: in vivo; settings: 7-day old seedlings, 24 hours treatment, 3 further days; doses tested 25, 50, 100 μM
Procedure: Wild type Arabidopsis thaliana Col-0 seeds were obtained from the ABRC, surface sterilized with 50% bleach, stratified for 1-3 d at 4° C., and germinated on half-strength (0.5×) Murashige and Skoog (MS) medium supplemented with 0.5% sucrose, 2.5 mM MES, pH 5.6, containing 0.8% agar, with a photoperiod of 16 h light 23° C./8 h dark 21° C.
To test whether PMPs can deliver a small molecule cargo in planta, 7-day old Arabidopsis thaliana seedlings were transferred to 0.5× liquid MS medium in a 24 well plate (1 seedling per well), and treated with free DOX or DOX-loaded PMPs with an encapsulated DOX dose of 0 (negative control), 25 μM, 50 μM and 100 μM. The plate was covered with aluminum foil and incubated for 24 hours. DOX-containing medium was removed, the seedlings were washed two times with ½X MS medium, and fresh medium was added. Seedlings were incubated for an additional 3 days under a normal photoperiod (16 h light 23° C./8 h dark 21° C.). Next, seedlings were removed from the plate and towel-dried for imaging and cytotoxicity was assessed by analyzing leaf vigor, leaf color and root length. Cytotoxicity is defined by shortening of the roots, loss of leaf vigor, and leaf discoloration (yellow instead of green) when compared to an untreated seedling control.

## COc1cccc2c1C(=O)c1c(O)c3c(c(O)c1C2=O)C[C@@](O)(C(=O)CO)C[C@@H]3O[C@H]1C[C@H](N)[C@H](O)[C@H](C)O1 [free doxorubicin, doxorubicin]
[1]
  cytotoxic effect (relative OD vs untreated control), in words: cytotoxicity is induced earlier than with PMP-DOX delivery
[2]
  cytotoxic effect (relative OD vs untreated control), in words: cytotoxicity is induced earlier than with PMP-DOX delivery
[3]
  cytotoxic effect (relative OD vs untreated control), in words: cytotoxicity is induced earlier than with PMP-DOX delivery
[4]
  cytotoxic effect (relative OD vs untreated control), in words: cytotoxicity is induced earlier than with PMP-DOX delivery
[5]
  DOX dose at which cytotoxicity was shown: 100 µM

Source: patent publication US20210219550A1, “PEST CONTROL COMPOSITIONS AND USES THEREOF” (Flagship Pioneering Innovations VI, LLC, priority 2018, published 2021)
